Results from ChEMBL document CHEMBL2380246, “Structure-activity relationships of hybrid annonaceous acetogenins: powerful growth inhibitory effects of their connecting groups between heterocycle and hydrophobic carbon chain bearing THF ring on human cancer cell lines” (2013).

Tests used:
Assay type in all cases: functional
SF-539 = assay: Growth inhibition of human SF539 cells after 48 hrs by sulforhodamine B assay; conditions: SF-539, 48 h
DMS-114 = assay: Growth inhibition of human DMS114 cells after 48 hrs by sulforhodamine B assay; conditions: DMS-114, 48 h
NCI-H226 = assay: Growth inhibition of human NCI-H226 cells after 48 hrs by sulforhodamine B assay; conditions: NCI-H226, 48 h
OVCAR-4 = assay: Growth inhibition of human OVCAR4 cells after 48 hrs by sulforhodamine B assay; conditions: OVCAR-4, 48 h
U-251 = assay: Growth inhibition of human U251 cells after 48 hrs by sulforhodamine B assay; conditions: U-251, 48 h
LOX IMVI = assay: Growth inhibition of human LOXIMVI cells after 48 hrs by sulforhodamine B assay
NCI-H460 = assay: Growth inhibition of human NCI-H460 cells after 48 hrs by sulforhodamine B assay; conditions: NCI-H460, 48 h
MCF7 = assay: Growth inhibition of human MCF7 cells after 48 hrs by sulforhodamine B assay; conditions: MCF7, 48 h
MKN-74 = assay: Growth inhibition of human MKN74 cells after 48 hrs by sulforhodamine B assay; conditions: MKN-74, 48 h
MKN-28 = assay: Growth inhibition of human MKN28 cells after 48 hrs by sulforhodamine B assay; conditions: MKN-28, 48 h
HT-29 = assay: Growth inhibition of human HT-29 cells after 48 hrs by sulforhodamine B assay; conditions: HT-29, 48 h
SK-OV-3 = assay: Growth inhibition of human SKOV3 cells after 48 hrs by sulforhodamine B assay; conditions: SK-OV-3, 48 h
[1] = Growth inhibition of human RXF631L cells after 48 hrs by sulforhodamine B assay; conditions: RXF 631, 48 h
[2] = Growth inhibition of human HBC4 cells after 48 hrs by sulforhodamine B assay; conditions: HBC4, 48 h
OVCAR-5 = assay: Growth inhibition of human OVCAR5 cells after 48 hrs by sulforhodamine B assay; conditions: OVCAR-5, 48 h
KM12 = assay: Growth inhibition of human KM12 cells after 48 hrs by sulforhodamine B assay; conditions: KM12, 48 h
SF-295 = assay: Growth inhibition of human SF295 cells after 48 hrs by sulforhodamine B assay; conditions: SF-295, 48 h
MDA-MB-231 = assay: Growth inhibition of human MDA-MB-231 cells after 48 hrs by sulforhodamine B assay; conditions: MDA-MB-231, 48 h
[3] = Growth inhibition of human MKN1 cells after 48 hrs by sulforhodamine B assay; conditions: MKN-1, 48 h
DU-145 = assay: Growth inhibition of human DU145 cells after 48 hrs by sulforhodamine B assay; conditions: DU-145, 48 h
SF-268 = assay: Growth inhibition of human SF268 cells after 48 hrs by sulforhodamine B assay; conditions: SF-268, 48 h
HCT-15 = assay: Growth inhibition of human HCT15 cells after 48 hrs by sulforhodamine B assay; conditions: HCT-15, 48 h
OVCAR-8 = assay: Growth inhibition of human OVCAR8 cells after 48 hrs by sulforhodamine B assay; conditions: OVCAR-8, 48 h
ACHN = assay: Growth inhibition of human ACHN cells after 48 hrs by sulforhodamine B assay
[4] = Growth inhibition of human BSY1 cells after 48 hrs by sulforhodamine B assay; conditions: BSY-1, 48 h
DMS-273 = assay: Growth inhibition of human DMS273 cells after 48 hrs by sulforhodamine B assay; conditions: DMS-273, 48 h
A549 = assay: Growth inhibition of human A549 cells after 48 hrs by sulforhodamine B assay; conditions: A549, 48 h
MKN-7 = assay: Growth inhibition of human MKN7 cells after 48 hrs by sulforhodamine B assay; conditions: MKN-7, 48 h
PC-3 = assay: Growth inhibition of human PC3 cells after 48 hrs by sulforhodamine B assay; conditions: PC-3, 48 h
St-4 = assay: Growth inhibition of human St-4 cells after 48 hrs by sulforhodamine B assay; conditions: St-4, 48 h
NCI-H23 = assay: Growth inhibition of human NCI-H23 cells after 48 hrs by sulforhodamine B assay; conditions: NCI-H23, 48 h
MKN-45 = assay: Growth inhibition of human MKN45 cells after 48 hrs by sulforhodamine B assay; conditions: MKN-45, 48 h
HCT-116 = assay: Growth inhibition of human HCT116 cells after 48 hrs by sulforhodamine B assay; conditions: HCT-116, 48 h
NCI-H522 = assay: Growth inhibition of human NCI-H522 cells after 48 hrs by sulforhodamine B assay; conditions: NCI-H522, 48 h
SNB-78 = assay: Growth inhibition of human SNB78 cells after 48 hrs by sulforhodamine B assay; conditions: SNB-78, 48 h
[5] = Growth inhibition of human HBC5 cells after 48 hrs by sulforhodamine B assay; conditions: HBC5, 48 h
OVCAR-3 = assay: Growth inhibition of human OVCAR3 cells after 48 hrs by sulforhodamine B assay; conditions: OVCAR-3, 48 h
SNB-75 = assay: Growth inhibition of human SNB75 cells after 48 hrs by sulforhodamine B assay; conditions: SNB-75, 48 h
[6] = Growth inhibition of human HCC2998 cells after 48 hrs by sulforhodamine B assay; conditions: HCC 2998, 48 h

Compound | GI50 (SF-539) [µM] | GI50 (DMS-114) [µM] | GI50 (NCI-H226) [µM] | GI50 (OVCAR-4) [µM] | GI50 (U-251) [µM] | GI50 (LOX IMVI) [µM] | GI50 (NCI-H460) [µM] | GI50 (MCF7) [µM] | GI50 (MKN-74) [µM] | GI50 (MKN-28) [µM] | GI50 (HT-29) [µM] | GI50 (SK-OV-3) [µM] | GI50 [1] [µM] | GI50 [2] [µM] | GI50 (OVCAR-5) [µM] | GI50 (KM12) [µM] | GI50 (SF-295) [µM] | GI50 (MDA-MB-231) [µM] | GI50 [3] [µM] | GI50 (DU-145) [µM] | further results
CCCCCCCCCCCC[C@@H](O)[C@H]1CC[C@H]([C@H](O)CCCCCCCCCCN(C)C(=O)c2ccnn2C)O1 | 12 | 0.0347 | 9.77 | 10 | 10 | 1.41 | 5.5 | 5.01 | 1.7 | 0.302 | 8.13 | 15.8 | 11 | 10 | 14.1 | 4.17 | 2 | 8.91 | 5.5 | 12.9 | GI50 (SF-268): 15.1 µM; GI50 (HCT-15): 10 µM; GI50 (OVCAR-8): 6.03 µM; GI50 (ACHN): 11 µM; GI50 [4]: 0.501 µM; GI50 (DMS-273): 3.31 µM; GI50 (A549): 8.51 µM; GI50 (MKN-7): 0.0513 µM; GI50 (PC-3): 2.19 µM; GI50 (St-4): 6.76 µM; GI50 (NCI-H23): 0.24 µM; GI50 (MKN-45): 11 µM; GI50 (HCT-116): 0.794 µM; GI50 (NCI-H522): 2.29 µM; GI50 (SNB-78): 12 µM; GI50 [5]: 3.09 µM; GI50 (OVCAR-3): 10 µM; GI50 (SNB-75): 15.8 µM; GI50 [6]: 12 µM
CCCCCCCCCCCC[C@@H](O)[C@H]1CC[C@H]([C@H](O)CCCCCCCCCCNCc2ccnn2C)O1 | 1.58 | 0.129 | 3.31 | 1.58 | 1.51 | 1.2 | 1.7 | 1.7 | 1.29 | 0.501 | 3.02 | 2.09 | 2.4 | 1.82 | 3.09 | 1.41 | 1.2 | 2.19 | 1.41 | 4.37 | GI50 (SF-268): 3.63 µM; GI50 (HCT-15): 2 µM; GI50 (OVCAR-8): 1.58 µM; GI50 (ACHN): 3.09 µM; GI50 [4]: 0.339 µM; GI50 (DMS-273): 1.58 µM; GI50 (A549): 8.71 µM; GI50 (MKN-7): 0.309 µM; GI50 (PC-3): 2.29 µM; GI50 (St-4): 1.82 µM; GI50 (NCI-H23): 0.646 µM; GI50 (MKN-45): 1.82 µM; GI50 (HCT-116): 1.1 µM; GI50 (NCI-H522): 1.29 µM; GI50 (SNB-78): 2.09 µM; GI50 [5]: 2.09 µM; GI50 (OVCAR-3): 1.51 µM; GI50 (SNB-75): 2 µM; GI50 [6]: 1.82 µM
